{
  "source": "patent US7176192B2",
  "about": "“Method for treating patients for radiation exposure” (BioNumerik Pharmaceuticals, Inc., priority 2001, dated 2007)",
  "key": {"humans": {"test_system": "humans", "assay": "administration of dimesna to humans, tolerability", "type": "in vivo", "conditions": "doses exceeding 15 g/m^2", "from_the_text": "(§1) Mesna and dimesna, as well as some analogues of these compounds, have excellent toxicity profiles in mammalian species. However, it is clear from our earlier discoveries that dimesna has a much lower degree of toxicity relative to mesna; this lower degree of toxicity for dimesna imparts additional therapeutic value to this invention for radiation therapy since it is contemplated that chronic or high doses of dimesna will be needed in some circumstances in order to provide adequate prophylaxis for radiation toxicity as well as for treatment of acute or chronic radiation toxicity."}, "mice": {"test_system": "mice", "assay": "intravenous administration of dimesna to mice, tolerability", "type": "in vivo", "conditions": "intravenously, doses higher than 3750 mg/kg", "from_the_text": "as §1"}, "dogs": {"test_system": "dogs", "assay": "intravenous administration of dimesna to dogs, tolerability", "type": "in vivo", "conditions": "intravenously, doses higher than 3750 mg/kg", "from_the_text": "as §1"}, "[1]": {"conditions": "accepted value, species not stated; cited from earlier work"}},
  "data": [
    {"smiles": "O=S(=O)([O-])CCSSCCS(=O)(=O)[O-].[Na+].[Na+]", "note": "[Dimesna, disodium 2,2′-dithiobis ethane sulfonate]", "values": [
      {"measurement": "adverse effects", "setting": "humans", "result": "no major adverse effects"},
      {"measurement": "adverse effects", "setting": "mice", "result": "no adverse effects"},
      {"measurement": "adverse effects", "setting": "dogs", "result": "no adverse effects"}
    ]},
    {"smiles": "[Cl-].[Na+]", "note": "[common table salt]", "values": [
      {"measurement": "oral LD50", "setting": "[1]", "result": 3750, "unit": "mg/kg"}
    ]}
  ]
}
